Consider one compound from paper PMC7037682, “Herb–Drug Interaction of Red Ginseng Extract and Ginsenoside Rc with Valsartan in Rats” (Molecules, 2020).

In series [1] the target is T1, OCT1 (Homo sapiens, UniProt O15245).
T1 sequence (O15245 1-554): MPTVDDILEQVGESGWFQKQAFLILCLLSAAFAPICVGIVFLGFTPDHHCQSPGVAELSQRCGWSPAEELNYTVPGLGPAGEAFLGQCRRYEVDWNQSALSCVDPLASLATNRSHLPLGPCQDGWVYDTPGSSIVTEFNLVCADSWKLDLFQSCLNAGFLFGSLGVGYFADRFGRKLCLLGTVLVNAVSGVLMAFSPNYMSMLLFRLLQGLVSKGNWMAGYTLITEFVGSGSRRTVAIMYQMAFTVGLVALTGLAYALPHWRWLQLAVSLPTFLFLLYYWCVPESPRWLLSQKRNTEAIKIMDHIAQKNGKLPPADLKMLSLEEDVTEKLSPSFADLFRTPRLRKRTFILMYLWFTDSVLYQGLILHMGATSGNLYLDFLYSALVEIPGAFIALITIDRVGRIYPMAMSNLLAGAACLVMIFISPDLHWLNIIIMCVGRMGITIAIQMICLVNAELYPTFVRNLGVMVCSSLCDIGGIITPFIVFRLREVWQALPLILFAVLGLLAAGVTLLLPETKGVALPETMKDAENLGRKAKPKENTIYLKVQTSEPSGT
As to the kind of experiment: Inhibition of OCT1-mediated [3H]MPP+ uptake in HEK293-OCT1 cells. To be noted: read-out: IC50 OCT1; HEK293-OCT1, 0.1 μM [3H]MPP+ uptake, 5 min. The protocol:
(§1) HEK293 cells overexpressing the OCT1, OCT2, OAT1, OAT3, OATP1B1, and OATP1B3 transporters (HEK293-OCT1, -OCT2, -OAT1, -OAT3, -OATP1B1, and -OATP1B3, respectively) and HEK293-mock cells (Corning Life Sciences; Woburn, MA, USA) were used and characterized as previously described.
(§2) HEK293 cells overexpressing drug transporters and HEK293-mock cells were seeded in poly-D-lysine-coated 96-well plates at a density of 10^5 cells/well and were cultured in DMEM supplemented with 10% FBS, 5 mM non-essential amino acids, and 2 mM sodium butyrate in a humidified atmosphere with 8% CO2 at 37 °C.
(§3) To examine the effects of ginsenosides and typical inhibitors on transporter activity, aliquots (100 μL) of HBSS containing the probe substrate and ginsenosides or typical inhibitors were added to the cells after aspirating pre-incubated HBSS. The concentrations and probe substrates were as follows: 0.1 μM [^3H]MPP^+ for OCT1 and OCT2, 0.1 μM [^3H]PAH for OAT1, 0.1 μM [^3H]ES for OAT3 and OATP1B1, and 0.1 μM [^3H]EG for OATP1B3. […] Then the uptake of probe substrates into HEK293-mock cells and HEK293-OCT1, -OCT2, -OAT1, -OAT3, -OATP1B1, and -OATP1B3 cells in the presence and absence of typical inhibitor or each ginsenoside with previously described concentration range was measured for 5 min. Immediately after placing the plates on ice, the cells were washed three times with 100 μL of ice-cold HBSS, followed by lysing with 50 μL of 10% SDS solution and mixing with 150 μL of Optiphase cocktail solution (Perkin Elmer Inc., Boston, MA, USA). The radioactivity of the probe substrates in the cells was determined using a liquid scintillation counter.
(§4) In the inhibition studies, the uptake rate of substrate by HEK293 cells overexpressing the respective transporters was used as the control (100%) and the uptake rate of substrates in the presence of typical inhibitors or ginsenosides expressed as a percentage of the control. The inhibition data were fitted to an inhibitory effect model using Sigma plot (version 10.0; Systat Software Inc., San Jose, CA, USA). IC50 value indicated the half-maximal inhibitory concentration of the inhibitor.

Series [2] has as its target T2, OAT1 (Homo sapiens, UniProt Q4U2R8).
T2 sequence (Q4U2R8 1-563): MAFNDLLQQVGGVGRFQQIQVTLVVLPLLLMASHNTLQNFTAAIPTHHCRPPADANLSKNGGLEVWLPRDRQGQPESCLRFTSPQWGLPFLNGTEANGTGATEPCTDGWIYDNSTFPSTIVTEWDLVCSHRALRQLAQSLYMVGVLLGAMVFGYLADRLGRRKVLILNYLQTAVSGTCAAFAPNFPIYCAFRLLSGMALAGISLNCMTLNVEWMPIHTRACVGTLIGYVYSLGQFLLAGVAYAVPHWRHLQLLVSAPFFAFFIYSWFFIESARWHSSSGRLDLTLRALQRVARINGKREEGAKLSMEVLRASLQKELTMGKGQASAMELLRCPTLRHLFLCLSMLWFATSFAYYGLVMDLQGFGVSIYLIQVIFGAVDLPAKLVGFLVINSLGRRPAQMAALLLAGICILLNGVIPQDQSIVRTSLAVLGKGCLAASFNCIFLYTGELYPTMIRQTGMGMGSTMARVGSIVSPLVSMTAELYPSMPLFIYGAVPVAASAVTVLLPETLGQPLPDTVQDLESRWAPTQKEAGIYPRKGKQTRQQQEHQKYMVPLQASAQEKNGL
As to the kind of experiment: Inhibition of OAT1-mediated [3H]PAH uptake in HEK293-OAT1 cells. To be noted: read-out: IC50 OAT1; HEK293-OAT1, 0.1 μM [3H]PAH uptake, 5 min. The protocol:
as §1, §2
Then the uptake of probe substrates into HEK293-mock cells and HEK293-OCT1, -OCT2, -OAT1, -OAT3, -OATP1B1, and -OATP1B3 cells in the presence and absence of typical inhibitor or each ginsenoside with previously described concentration range was measured for 5 min. Immediately after placing the plates on ice, the cells were washed three times with 100 μL of ice-cold HBSS, followed by lysing with 50 μL of 10% SDS solution and mixing with 150 μL of Optiphase cocktail solution (Perkin Elmer Inc., Boston, MA, USA). The radioactivity of the probe substrates in the cells was determined using a liquid scintillation counter.
as §4

For series [3], the target named is T3, OATP1B3 (Homo sapiens, UniProt Q9NPD5).
T3 sequence (Q9NPD5 1-702): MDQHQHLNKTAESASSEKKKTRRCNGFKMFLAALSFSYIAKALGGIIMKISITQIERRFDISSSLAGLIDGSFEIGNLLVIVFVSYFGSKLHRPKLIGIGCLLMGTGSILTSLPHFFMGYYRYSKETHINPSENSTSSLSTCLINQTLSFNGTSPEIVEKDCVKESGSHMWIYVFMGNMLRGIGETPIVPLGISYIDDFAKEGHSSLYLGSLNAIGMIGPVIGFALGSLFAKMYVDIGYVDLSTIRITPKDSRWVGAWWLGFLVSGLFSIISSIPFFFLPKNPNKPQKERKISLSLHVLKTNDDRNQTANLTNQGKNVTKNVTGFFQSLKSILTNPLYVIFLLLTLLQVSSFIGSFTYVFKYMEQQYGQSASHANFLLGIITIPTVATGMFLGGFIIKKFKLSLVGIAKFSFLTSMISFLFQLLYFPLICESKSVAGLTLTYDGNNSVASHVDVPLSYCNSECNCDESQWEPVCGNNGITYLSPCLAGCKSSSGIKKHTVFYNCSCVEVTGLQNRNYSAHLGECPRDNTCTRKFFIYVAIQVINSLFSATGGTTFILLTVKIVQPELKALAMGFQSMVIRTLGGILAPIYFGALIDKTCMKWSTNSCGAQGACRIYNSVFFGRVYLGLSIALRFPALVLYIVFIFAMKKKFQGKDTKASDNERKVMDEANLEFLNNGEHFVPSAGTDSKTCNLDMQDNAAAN
As to the kind of experiment: Inhibition of OATP1B3-mediated [3H]estradiol-17β-D-glucuronide uptake in HEK293-OATP1B3 cells. To be noted: read-out: IC50 OATP1B3; HEK293-OATP1B3, 0.1 μM [3H]EG uptake, 5 min. Here is the method:
as §1, §2, §3, §4

SMILES strings stand for the structures. A value given as a limit tells only on which side of the number the result lay.

As to `CC(C)=CCC[C@](C)(O[C@@H]1O[C@H](CO)[C@@H](O)[C@H](O)[C@H]1O)[C@H]1CC[C@]2(C)[C@@H]1[C@H](O)C[C@@H]1[C@@]3(C)CC[C@H](O)C(C)(C)[C@@H]3CC[C@]12C` [Compound K, compound K], the figures for the 50% inhibitory concentration (IC50) in series [1], in series [2] and in series [3] were more than 100 µM, more than 100 µM and 8.25 µM, respectively.

As a reminder, the IC50 is the midpoint of a concentration-inhibition curve.
